This is an account of results in patent US20220264927A1, “ORAL DOSE COMPOSITIONS OF TRIBUTYRIN FOR THE GENERATION OF BUTYRATE IN THE GUT” (NutriScience Innovations LLC, priority 2021, published 2022).

Read-outs that look alike come from different tables or passages of the source.

In one series the test system is Caenorhabditis elegans. It counts as in vivo. The method, then: In the second type of experiment, an animal model system was used to study changes in the gut microbiome behavior. Caenorhabditis elegans (C. elegans), a nematode commonly used as an organism model, was used in the present study. Reduction of oxidative stress was determined in the C. elegans model. Butyrate has previously been shown in rodent and porcine studies to ameliorate oxidative stress in the intestine generated via hydrogen peroxide or Diquat dibromide exposure. Thus, an oxidative stress assay is a rapid indirect method of determining whether the tributyrin doses proposed in this study can produce beneficial butyrate in vivo.
Previous studies have shown that this concentration of Paraquat will kill adult C. elegans in liquid culture within 24 hours of exposure via the generation of superoxide anions that lead to oxidative damage of vital cellular components. The standard methods of growing the animals, treating with Paraquat, washing out the Paraquat, and observing survival at 12 hours post Paraquat treatment have been previously described. One group received only Paraquat as a positive control, while a second group received nothing as a negative control, and all others received the therapeutic treatments. […]
In the C. elegans series of studies, the human equivalent dose (HED) of tributyrin was determined in the following manner. A typical human stomach size of 250 ml was used as a baseline. […] Tributyrin is soluble in DMSO up to a maximum concentration of 100 mg/ml, which is equivalent to 330.73 mM. C. elegans can be exposed to a 1% solution of DMSO in aqueous standard nematode growth media without compromising its viability. […]

Series [1] relates to intestinal barrier and liver. The note with it: ethanol-exposed mice, diet supplemented 5 mM, 10 days; cited from earlier work.
Series [2] has as its system gut microbiota starter cultures (human feces from 6 volunteers). Description: ex vivo simulation of colon fermentation with human fecal starter cultures; butyrate generation by chromatography. It counts as cell-based. The note with it: for Butyrate Generation: after 48 hours of fermentation. How it is done:
In the first type of experiment, an ex-vivo model system is used. In this model system, an ex vivo simulation of the fermentation that occurs in the colon was used. Human feces from 6 volunteers were used as a gut microbiota starter cultures. The test materials were added to this system and butyrate generation was determined after 48 hours of fermentation, compared to controls for each set. Butyrate generation was measured using chromatography.
In this series of experiments the human equivalent dose (HED) was determined to be 1 gram/day of ingested prebiotic in-vivo corresponds to approximately 1 g/L in-vitro dose. Therefore a 10 mg/ml in-vitro dose is equivalent to 10 mg/day HED.

For series [3] the following is noted: cited from earlier work.
The subject of series [4] is mucosal damage in experimental colitis. As to conditions: DSS colitis, 5 g/kg diet, cited from earlier work.
For series [5] the following is noted: after ingestion, cited from earlier work.
The nature of series [6]: solubility of tributyrin in DMSO. The note with it: organic solvent or mixture, equivalent of 100 mg/ml, read-out: maximum concentration soluble in DMSO. Type of series: physicochemical. How it is done:
In the C. elegans series of studies, the human equivalent dose (HED) of tributyrin was determined in the following manner. A typical human stomach size of 250 ml was used as a baseline. 100 mg per serving per day of tributyrin for a 60 Kg adult is equivalent to 400 μg/ml (˜1.32 mM). Tributyrin is soluble in DMSO up to a maximum concentration of 100 mg/ml, which is equivalent to 330.73 mM. C. elegans can be exposed to a 1% solution of DMSO in aqueous standard nematode growth media without compromising its viability. Doses between 10 mg HED [40 μg/ml (˜0.13 mM)], and 100 mg HED [400 μg/ml (˜1.32 mM)] were used.

Setting [7] is: Example 4, probiotic alone, test dose 5*10^7 CFU/mL, blank 2.78.

On to `C[n+]1ccc(-c2cc[n+](C)cc2)cc1` [Paraquat, reference compound], for which the “% Survival of Worms at 12 hours” value in the series with Caenorhabditis elegans (Paraquat 250 nM alone (positive control), negative control 98.69) is 67.63%.
In the case of `CCCC(=O)OCC(COC(=O)CCC)OC(=O)CCC` [Tributyrin, propane-1,2,3-triyl tributyrate], the oxidative stress result in the series with Caenorhabditis elegans (Example 3, tributyrin HED 10 and 100 mg/day, in words) is given as “significant reduction in oxidative stress”. The “% Survival of Worms at 12 hours” value in the series on Caenorhabditis elegans (test dose 40 ug/mL (HED 10 mg per day), no Paraquat) was found to be 97.24%; in the series with Caenorhabditis elegans (test dose 40 ug/mL + Paraquat 250 nM (HED 10 mg per day), Paraquat alone 67.63), 68.86%; with Caenorhabditis elegans (test dose 400 ug/mL (HED 100 mg per day), no Paraquat) it was 99.23%; in the series on Caenorhabditis elegans (test dose 400 ug/mL + Paraquat 250 nM (HED 100 mg per day), Paraquat alone 67.63), 73.63%. The liver injury entry in series [1] is “mitigated liver injury”. Besides, the “tight-junction (TJ) protein staining in proximal colon and ileum” value in series [1] was “maintained immunoreactive staining intensity of TJ proteins”. The “Butyrate Generation” value in series [2] (Example 1, test dose 50 mg/L (HED 50 mg per day), blank 2.86) is 3.22 mM; in series [2] (Example 1, test dose 100 mg/L (HED 100 mg per day), blank 2.86) it was 3.73 mM; in series [2] (Examples 2 and 4, test dose 100 mg/L (HED 100 mg per day), blank 2.78), 3.51 mM. Also, the “butyrate generation compared with inulin at HED 4 g/day” value in series [2] (Example 1, tributyrin HED 50 to 100 mg/day, in words) was “about the same amount of butyrate”. Also, in series [2] (Example 2, tributyrin 100 mg/day HED, in words), the “butyrate generation compared with XOS at HED 1 g/day” value is listed as “equivalent butyrate generation”. Besides, the “maximum concentration soluble in DMSO” value in series [3] is at most 100 mg/mL. The mucosal architecture result in series [4] (versus non-supplemented mice) is reported as “improved mucosal architecture”. Besides, the intestinal permeability result in series [4] was “reduced intestinal permeability”. The “oxidative stress (hydroperoxide)” value in series [4] was “lower level of hydroperoxide”. Besides, the “peak time of butyrate in plasma” value in series [5] (in words) is listed as “on the order of hours”. Moreover, the solubility in series [6] came to 331 mM.
`CCCC(=O)[O-].[Na+]` [sodium butyrate, Sodium butyrate, reference compound]: the “peak time of butyrate in plasma” value in series [5] is 15 to 45 min.
As for Inulin [reference compound], in series [2] (Example 1, test dose 4 g/L (HED 4 g per day), blank 2.86), the “Butyrate Generation” value was 3.62 mM.
With Lacticaseibacillus rhamnosus GG [LGG], the “Butyrate Generation” value in series [2] (setting [7]) is on record as 3.15 mM.
With Limosilactobacillus reuteri, the “Butyrate Generation” value in series [2] (setting [7]) was 2.72 mM.
Turning to “partially hydrolyzed guar gum [PHGG, reference compound]”, the “% Survival of Worms at 12 hours” value stood at 96.24% with Caenorhabditis elegans (test dose 20 mg/mL (HED 5 g per day), no Paraquat); 49.39% in the series with Caenorhabditis elegans (test dose 20 mg/mL + Paraquat 250 nM (HED 5 g per day), Paraquat alone 67.63); 96.27% in the series on Caenorhabditis elegans (test dose 40 mg/mL (HED 10 g per day), no Paraquat); 62.99% in the series with Caenorhabditis elegans (test dose 40 mg/mL + Paraquat 250 nM (HED 10 g per day), Paraquat alone 67.63).
For the compound “xylooligosaccharide [XOS, reference compound]”, the “Butyrate Generation” value in series [2] (Examples 2 and 4, test dose 1 g/L (HED 1 g per day), blank 2.78) was 3.30 mM.
